Measurements as given in US20230103631A1, “PEPTIDES AS SELECTIVE GIP RECEPTOR AGONISTS” (Sanofi, priority 2020, published 2023).
pEC50, pIC50: −log10 of the molar value. *1 amine or outer side, *2 acyl side, *3 side chain or, on linkers, in order; H or OH if unused. Where a SMILES comes first, the peptide text is derived from it. Side-chain parts run from the residue outwards. [ ]: non-standard residue; d: D form. The star is where a group is joined. C20 diacid = O=C(O)CCCCCCCCCCCCCCCCCCC(=O)*; C18 diacid = O=C(O)CCCCCCCCCCCCCCCCC(=O)*; γGlu = O=C(O)[C@H](CCC(=O)[*:2])N[*:1]; NMeY = CN[C@@H](Cc1ccc(O)cc1)C(=O)O; AEEA = NCCOCCOCC(=O)O; Aib = CC(C)(N)C(=O)O

How the values were obtained:
[1] = target: T1, human GIP receptor (hGIPR) (Homo sapiens, UniProt P48546); assay: Binding assay, displacement of [125I]GIP from HEK-293 membranes expressing GIPR; conditions: [125I]GIP displacement
T1 sequence (P48546 22-466): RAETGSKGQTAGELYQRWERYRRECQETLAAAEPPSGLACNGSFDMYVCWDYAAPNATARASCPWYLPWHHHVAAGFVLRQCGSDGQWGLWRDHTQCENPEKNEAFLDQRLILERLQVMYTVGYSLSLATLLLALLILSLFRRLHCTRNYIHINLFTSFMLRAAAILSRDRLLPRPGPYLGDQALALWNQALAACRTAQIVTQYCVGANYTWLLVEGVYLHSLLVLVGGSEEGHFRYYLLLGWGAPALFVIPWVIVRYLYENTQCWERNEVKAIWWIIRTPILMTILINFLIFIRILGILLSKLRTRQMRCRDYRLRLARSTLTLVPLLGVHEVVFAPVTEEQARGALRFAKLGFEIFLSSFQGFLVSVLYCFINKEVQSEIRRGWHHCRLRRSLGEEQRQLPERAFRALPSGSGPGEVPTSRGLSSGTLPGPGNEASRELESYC
Description: HEK-293 cells recombinantly over-expressing GIPR or GLP-1R were grown to 50% confluency, washed with warm 1×PBS (Gibco) and detached in HEPES/EDTA-buffer (100 mM HEPES pH 7.5, 5 mM EDTA). Cells were harvested by centrifugation at 4° C. and 3000×g and the pellets were stored at −80° C. until further processing.
After thawing on ice, pellets were resuspended in HEPES/EDTA-buffer and homogenized on ice for 1 min using Ultra-Turray T25. After subsequent sonification the cell debris was removed by centrifugation at 1000×g and 4° C. Supernatants were then ultra-centrifuged at 100000×g and 4° C. under vacuum for 30 min. Pellets were resuspended in HEPES/EDTA/NaCl-buffer (20 mM HEPES, 1 mM EDTA, 150 mM NaCl; add 1 Complete Mini Protease inhibitor cocktail to 10 ml buffer) and protein content was determined via BCA-Protein assay.

[2] = Dynamic light scattering (DLS) for the assessment of physical stability; format: physicochemical; conditions: DLS buffer system A
Text: A monochromatic and coherent light beam (laser) is used to illuminate the liquid sample. Dynamic Light Scattering (DLS) measures light scattered from particles (1 nm≤radius≤1 μm) that undergo Brownian motion. This motion is induced by collisions between the particles and solvent molecules, that themselves are moving due to their thermal energy. The diffusional motion of the particles results in temporal fluctuations of the scattered light (R. Pecora, Dynamic Light Scattering: Applications of Photon Correlation Spectroscopy, Plenum Press, 1985).
The scattered light intensity fluctuations are recorded and transformed into an autocorrelation function. By fitting the autocorrelation curve to an exponential function, the diffusion coefficient D of the particles in solution can be derived. The diffusion coefficient is then used to calculate the hydrodynamic radius Rh (or apparent Stokes radius) through the Stokes-Einstein equation assuming spherical particles. This calculation is defined in ISO 13321 and ISO 22412 (International Standard ISO13321 Methods for Determination of Particle Size Distribution Part 8: Photon Correlation Spectroscopy, International Organisation for Standardisation (ISO) 1996; International Standard ISO22412 Particle Size Analysis—Dynamic Light Scattering, International Organisation for Standardisation, 2008).
In case of polydisperse samples, the autocorrelation function is the sum of the exponential decays corresponding to each of the species. The temporal fluctuations of the scattered light can then be used to determine the size distribution profile of the particle fraction or family. The first order result is an intensity distribution of scattered light as a function of the particle size. The intensity distribution is naturally weighted according to the scattering intensity of each particle fraction or family. For biological materials or polymers, the particle scattering intensity is proportional to the square of the molecular weight. Thus, small amount of aggregates/agglomerates or presence or a larger particle species can dominate the intensity distribution. However, this distribution can be used as a sensitive detector for the presence of large material in the sample.
The DLS technique produces distributions with inherent peak broadening. The polydispersity index % Pd is a measure of the width of the particle size distribution and is calculated by standard methods described in ISO13321 and ISO22412 [International Standard ISO13321 Methods for Determination of Particle Size Distribution Part 8: Photon Correlation Spectroscopy, International Organisation for Standardisation (ISO) 1996; International Standard ISO22412 Particle Size Analysis—Dynamic Light Scattering, International Organisation for Standardisation (ISO) 2008].
Solutions from solid samples were prepared in buffer systems (see below) with a target concentration of 300 μM compound based on the previously determined % purity.
DLS buffer system A) 20 mM phosphate buffer pH 7.4
DLS buffer system B) 8 mM phosphate buffer pH 7.4, 14 mg/ml propylene glycol, 5.5 mg/ml phenol
DLS buffer system C) 100 mM phosphate buffer pH 7.4, 2.7 mg/ml m-cresol Solutions were filtered through 0.22 μm pore size and filled into sterilized glass containers under laminar flow conditions. For every peptide solution, the apparent hydrodynamic radius (Rh), the corresponding Scattering Intensity (I), and the Mass Contribution (M) were determined as an average over 3-6 replicates from the intensity distribution of the scattered light averaging only high-quality measurements. Relative standard deviations (RSD) for these parameters were calculated from the same number of replicates. […]

human GIP receptor = target: T2, human GIP receptor (Homo sapiens, UniProt P48546); assay: cAMP HTRF assay in human adipocytes endogenously expressing the human GIP receptor; format: cell-based; conditions: for pEC50: read-out: hGIPR EC50; for Emax: read-out: hGIPR Emax
T2 construct: human adipocytes endogenously expressing the human GIP receptor; host or cells: human preadipocytes (Lonza) differentiated to adipocytes
T2 sequence (P48546 22-466): T1 sequence (P48546 22-466)
Description: For this, one vial of human preadipocytes (˜10^6 cells; Lonza) was thawed in a T-75 cell culture dish.
After 3 days, the cells were washed with PBS and 1.5 ml Trypsin, incubated for 4 min, then resuspended in medium, centrifugated for 10 min @ 300 rcf RT, resuspended again and distributed to four T-75 cell culture dishes.
After 5 days, the cells were washed with PBS and 1.5 ml Trypsin, incubated for 4 min, then resuspended in medium, centrifugated for 10 min @ 300 rcf RT, resuspended again and sawn in T-75 dishes (2.5×10^6 cells per dish) in 15 ml Differentiation medium each.
After 6 days of differentiation, 5000 cells per well were dispensed on a 96-well plate (#CLS3694 from Corning®, Sigma-Aldrich). For measurement of cAMP generation, 25 μL of test compound was added to each well of the 96-well plate, followed by incubation for 30 min at room temperature.
The cAMP generated following test compound stimulation was determined using a kit from Cisbio Corp. based on HTRF (Homogenous Time Resolved Fluorescence). The cAMP assay was performed according to manufacturer's instructions (Cisbio).
The cAMP content of cells was determined using a kit from Cisbio Corp. based on HTRF (Homogenous Time Resolved Fluorescence).

| Compound | pIC50 [1] | I and SD (Scattering Intensity) ([2]; 0 weeks) [%] | M and SD (Mass Contribution) ([2]; 0 weeks) [%] | apparent Rh and SD ([2]; 0 weeks) [nm] | I and SD (Scattering Intensity) ([2]; 4 weeks storage at 40° C.) [%] | M and SD (Mass Contribution) ([2]; 4 weeks storage at 40° C.) [%] | apparent Rh and SD ([2]; 4 weeks storage at 40° C.) [nm] | pEC50 (human GIP receptor) | Emax (human GIP receptor) [%] |
| --- | --- | --- | --- | --- | --- | --- | --- | --- | --- |
| CC[C@H](C)[C@H](NC(=O)[C@H](CCCNC(=N)N)NC(=O)[C@H](CC(=O)O)NC(=O)[C@H](CCCCNC(=O)COCCOCCNC(=O)COCCOCCNC(=O)CC[C@H](NC(=O)CCCCCCCCCCCCCCCCCCC(=O)O)C(=O)O)NC(=O)C(C)(C)NC(=O)[C@@H](NC(=O)[C@H](CO)NC(=O)[C@H](CC(C)C)NC(=O)[C@H](CC(=O)O)NC(=O)[C@H](CO)NC(=O)[C@@H](NC(=O)[C@H](Cc1ccccc1)NC(=O)[C@@H](NC(=O)CNC(=O)[C@H](CCC(=O)O)NC(=O)C(C)(C)NC(=O)[C@@H](N)Cc1ccc(O)cc1)[C@@H](C)O)[C@@H](C)CC)[C@@H](C)CC)C(=O)N[C@@H](Cc1c[nH]cn1)C(=O)N[C@@H](CCC(N)=O)C(=O)NC(C)(C)C(=O)N[C@@H](CCC(=O)O)C(=O)N[C@@H](Cc1ccccc1)C(=O)N[C@H](C(=O)N[C@@H](CCC(=O)O)C(=O)N[C@@H](Cc1c[nH]c2ccccc12)C(=O)N[C@@H](CC(C)C)C(=O)N[C@@H](CC(C)C)C(=O)N[C@@H](C)C(=O)N[C@@H](CCC(N)=O)C(=O)NCC(=O)N1CCC[C@H]1C(=O)N[C@@H](CO)C(=O)N[C@@H](CO)C(=O)NCC(=O)N[C@@H](C)C(=O)N1CCC[C@H]1C(=O)N1CCC[C@H]1C(=O)N1CCC[C@H]1C(=O)N[C@@H](CO)C(N)=O)[C@@H](C)CC [SEQ ID NO: 7, H2N-Y-Aib-E-G-T-F-I-S-D-I-S-I-Aib-K[{AEEA}2-gGlu-C20OH]-D-R-I-H-Q-Aib-E-F-I-E-W-I-L-A-Q-G-P-S-S-G-A-P-P-P-S-NH2] (H-Y[Aib]EGTFISDLSI[Aib]K([AEEA-AEEA-γGlu-C20 diacid])DRIHQ[Aib]EFIEWLLAQGPSSGAPPPS-NH2) | 9.70 | 85 ± 2 | 100 ± 0 | 2.06 ± 0.03 | 73 ± 4 | 100 ± 0 | 2.04 ± 0.02 | 9.52 | 121 |
| CC[C@H](C)[C@H](NC(=O)[C@H](CCCNC(=N)N)NC(=O)[C@H](CC(=O)O)NC(=O)[C@H](CCCCNC(=O)COCCOCCNC(=O)COCCOCCNC(=O)CC[C@H](NC(=O)CCCCCCCCCCCCCCCCC(=O)O)C(=O)O)NC(=O)C(C)(C)NC(=O)[C@@H](NC(=O)[C@H](CO)NC(=O)[C@H](CC(C)C)NC(=O)[C@H](CC(=O)O)NC(=O)[C@H](CO)NC(=O)[C@@H](NC(=O)[C@H](Cc1ccccc1)NC(=O)[C@@H](NC(=O)CNC(=O)[C@H](CCC(=O)O)NC(=O)C(C)(C)NC(=O)[C@H](Cc1ccc(O)cc1)NC)[C@@H](C)O)[C@@H](C)CC)[C@@H](C)CC)C(=O)N[C@@H](Cc1c[nH]cn1)C(=O)N[C@@H](CCC(N)=O)C(=O)NC(C)(C)C(=O)N[C@@H](CCC(=O)O)C(=O)N[C@@H](Cc1ccccc1)C(=O)N[C@H](C(=O)N[C@@H](CCC(=O)O)C(=O)N[C@@H](Cc1c[nH]c2ccccc12)C(=O)N[C@@H](CC(C)C)C(=O)N[C@@H](CC(C)C)C(=O)N[C@@H](C)C(=O)N[C@@H](CCC(N)=O)C(=O)NCC(=O)N1CCC[C@H]1C(=O)N[C@@H](CO)C(=O)N[C@@H](CO)C(=O)NCC(=O)N[C@@H](C)C(=O)N1CCC[C@H]1C(=O)N1CCC[C@H]1C(=O)N1CCC[C@H]1C(=O)N[C@@H](CO)C(N)=O)[C@@H](C)CC [SEQ ID NO: 8, MeHN-Y-Aib-E-G-T-F-I-S-D-I-S-I-Aib-K[{AEEA}2-gGlu-C180H]-D-R-I-H-Q-Aib-E-F--E-W-I-L-A-Q-G-P-S-S-G-A-P-P-P-S-NH2] (H-[NMeY][Aib]EGTFISDLSI[Aib]K([AEEA-AEEA-γGlu-C18 diacid])DRIHQ[Aib]EFIEWLLAQGPSSGAPPPS-NH2) | 9.70 | 73 ± 3 | 100 ± 0 | 2.06 ± 0.03 | 78 ± 9 | 100 ± 0 | 2.00 ± 0.07 | 9.30 | 116 |
| CC[C@H](C)[C@H](NC(=O)[C@H](Cc1ccccc1)NC(=O)[C@H](CCC(=O)O)NC(=O)[C@H](CCC(=O)O)NC(=O)[C@H](CCC(N)=O)NC(=O)[C@H](Cc1c[nH]cn1)NC(=O)[C@@H](NC(=O)[C@H](CCCNC(=N)N)NC(=O)[C@H](CC(=O)O)NC(=O)[C@H](CCCCNC(=O)COCCOCCNC(=O)COCCOCCNC(=O)CC[C@H](NC(=O)CCCCCCCCCCCCCCCCCCC(=O)O)C(=O)O)NC(=O)C(C)(C)NC(=O)[C@@H](NC(=O)[C@H](CO)NC(=O)[C@H](CC(C)C)NC(=O)[C@H](CC(=O)O)NC(=O)[C@H](CO)NC(=O)[C@@H](NC(=O)[C@H](Cc1ccccc1)NC(=O)[C@@H](NC(=O)CNC(=O)[C@H](CCC(=O)O)NC(=O)C(C)(C)NC(=O)[C@@H](N)Cc1ccc(O)cc1)[C@@H](C)O)[C@@H](C)CC)[C@@H](C)CC)[C@@H](C)CC)C(=O)N[C@@H](CCC(=O)O)C(=O)N[C@@H](Cc1c[nH]c2ccccc12)C(=O)N[C@@H](CC(C)C)C(=O)N[C@@H](CC(C)C)C(=O)N[C@@H](C)C(=O)N[C@@H](CCC(N)=O)C(=O)NCC(=O)N1CCC[C@H]1C(=O)N[C@@H](CO)C(=O)N[C@@H](CO)C(=O)NCC(=O)N[C@@H](C)C(=O)N1CCC[C@H]1C(=O)N1CCC[C@H]1C(=O)N1CCC[C@H]1C(=O)N[C@@H](CO)C(N)=O [SEQ ID NO: 10, H2N-Y-Aib-E-G-T-F-I-S-D-I-S-I-Aib-K[{AEEA}2-gGlu-C20OH]-DRIHQEEFIEWILAQGPSSGAPPPS-NH2] (H-Y[Aib]EGTFISDLSI[Aib]K([AEEA-AEEA-γGlu-C20 diacid])DRIHQEEFIEWLLAQGPSSGAPPPS-NH2) | 9.52 | 60 ± 3 | 100 ± 0 | 1.97 ± 0.03 | 75 ± 3 | 100 ± 0 | 1.91 ± 0.04 | – | 127 |
